Measurements as given in US20220162191A1, “SMALL MOLECULE MODULATORS OF IL-17” (LEO PHARMA A/S, priority 2019, published 2022).
pEC50: −log10 of the molar value.

target: T1, human IL-17AA (Homo sapiens, UniProt Q16552); assay: IL-8 release assay in human epithelial keratinocytes adult (HEKa); type: cell-based; settings: 3 ng/ml human IL-17AA + 10 ng/ml human TNFalpha, 68-72 h, IL-8 by HTRF, read-out: Rel EC50 L-8 release assay
T1 construct: host or cells: HEK (human embryonic kidney) cells
T1 sequence (Q16552 24-155) 1: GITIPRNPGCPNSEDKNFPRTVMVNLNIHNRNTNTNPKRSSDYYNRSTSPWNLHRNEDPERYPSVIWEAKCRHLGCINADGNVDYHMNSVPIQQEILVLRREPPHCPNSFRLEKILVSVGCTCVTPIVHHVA
T1 sequence (Q16552 24-155) 2: T1 sequence (Q16552 24-155) 1
Method: Example: IL-8 release assay in human epithelial keratinocytes adult (HEKa) Keratinocytes were seeded at 3500 cells/well in 384-well ViewPlates (Perkin Elmer) in Epilife medium (Thermo Fisher) containing human keratinocyte growth supplement (HKGS) without hydrocortisone and incubated in a humid incubator at 37° C., 5% CO2, overnight. The following day growth medium was removed and 25 μl fresh Epilife 10 medium added. 75 nl test compound in 100% DMSO was added into each well reserved
for test compounds, by the use of acoustic pipetting. The remaining wells received an equal volume of DMSO only, as vehicle control, or terfenadine in DMSO, as a positive control for any cytotoxic compounds. Subsequently, another 25 μl Epilife medium was added to each well. Finally, wells containing test compounds and wells prepared to yield 15 maximum stimulation received 25 μl of 9 ng/ml recombinant, human embryonic kidney cell (HEK)-derived human IL-17AA+30 ng/ml human TNF-alpha, in Epilife medium. Wells prepared to define 100% inhibition of IL-17 effects received 25 μl of 30 ng/ml human TNF-alpha alone, in Epilife medium. Final concentrations were 3 ng/ml HEKhuman IL-17AA+10 ng/ml human TNFalpha (maximum stimulation) and 10 ng/ml 20 human TNFalpha alone (100% inhibition, Emax), respectively. Cells were incubated for 68-72 h in the incubator. IL-8 released from the cells was measured by the use of a commercial homogenous time-resolved fluorescence (HTRF) assay (CisBio). 2 μl cell culture supernatant was transferred to a 384-well Proxiplate. 5 μl HTRF reagent was added and the plates incubated sealed in the dark for 3-22 h at room temperature. Time resolved fluorescence was read at 665 vs 620 nm, with excitation at 320 nm, and IL-8 levels calculated as percent of controls. Reduction of the amount of secreted IL-8 indicates decreased IL-17 signaling. Concentration response curves were fitted by the use of a four-parameter logistic equation. Relative IC50 and Emax were reported from 5 curves showing acceptable fit (r2>0.9). Cytotoxicity was measured in the cell-containing
Compounds of the present invention were tested in the IL-8 release assay in human epithelial keratinocytes.

pEC50 | SMILES
6.00 to 7.00 | CC(C)n1cc(-c2cccc(C(c3ccccc3)C(NC(=O)c3ccnn3C)C(=O)Nc3ccc(-c4cncn4C)cc3)c2)ccc1=O (single isomer, unassigned) [Example 230, N-[1-[[3-(1-isopropyl-6-oxo-3-pyridyl)phenyl]-phenyl-methyl]-2-[4-(3-methylimidazol-4-yl)anilino]-2-oxo-ethyl]-2-methyl-pyrazole-3-carboxamide]
6.00 to 7.00 | CC(C)n1cc(-c2cccc(C(c3ccccc3)C(NC(=O)OC3CC3)C(=O)Nc3ccc(-c4cncn4C)cc3)c2)ccc1=O (single isomer, unassigned) [Example 231, Cyclopropyl N-[1-[[3-(1-isopropyl-6-oxo-3-pyridyl)phenyl]-phenyl-methyl]-2-[4-(3-methylimidazol-4-yl)anilino]-2-oxo-ethyl]carbamate]
> 7.00 | Cc1n[nH]cc1-c1ccc(NC(=O)C(NC(=O)c2ccnn2C)C(c2ccccc2)c2cccc(-c3ccc(=O)n(C(C)C)c3)c2)cc1 (single isomer, unassigned; diastereomer 1) [Example 235, N-[1-[[3-(1-isopropyl-6-oxo-3-pyridyl)phenyl]-phenyl-methyl]-2-[4-(3-methyl-1H-pyrazol-4-yl)anilino]-2-oxo-ethyl]-2-methyl-pyrazole-3-carboxamide (Diastereomer 1)]
< 6.00 | Cc1n[nH]cc1-c1ccc(NC(=O)C(NC(=O)OC2CC2)C(c2ccccc2)c2cccc(-c3ccc(=O)n(C(C)C)c3)c2)cc1 (single isomer, unassigned; diastereomer 1) [Example 242, cyclopropyl N-[1-[[3-(1-isopropyl-6-oxo-3-pyridyl)phenyl]-phenyl-methyl]-2-[4-(3-methyl-1H-pyrazol-4-yl)anilino]-2-oxo-ethyl]carbamate (Diastereomer 1)]
< 6.00 | CC(C)n1cc(-c2cccc(C(c3ccccc3)C(NC(=O)c3ccnn3C)C(=O)Nc3ccc(-c4cncn4C)cc3)c2)ccc1=O (single isomer, unassigned; diastereomer 2) [Example 232, N-[1-[[3-(1-isopropyl-6-oxo-3-pyridyl)phenyl]-phenyl-methyl]-2-[4-(3-methylimidazol-4-yl)anilino]-2-oxo-ethyl]-2-methyl-pyrazole-3-carboxamide (Diastereomer 2)]
> 7.00 | Cc1n[nH]cc1-c1ccc(NC(=O)C(NC(=O)c2ccnn2C)C(c2ccccc2)c2cccc(-c3ccc(=O)n(C(C)C)c3)c2)cc1 (single isomer, unassigned; diastereomer 2) [Example 236, N-[1-[[3-(1-isopropyl-6-oxo-3-pyridyl)phenyl]-phenyl-methyl]-2-[4-(3-methyl-1H-pyrazol-4-yl)anilino]-2-oxo-ethyl]-2-methyl-pyrazole-3-carboxamide (Diastereomer 2)]
6.00 to 7.00 | CC(C)n1cc(-c2cccc(C(c3ccccc3)C(NC(=O)OC3CC3)C(=O)Nc3ccc(-c4cncn4C)cc3)c2)ccc1=O (single isomer, unassigned; diastereomer 2) [Example 239, cyclopropyl N-[1-[[3-(1-isopropyl-6-oxo-3-pyridyl)phenyl]-phenyl-methyl]-2-[4-(3-methylimidazol-4-yl)anilino]-2-oxo-ethyl]carbamate (Diastereomer 2)]
6.00 to 7.00 | Cc1n[nH]cc1-c1ccc(NC(=O)C(NC(=O)OC2CC2)C(c2ccccc2)c2cccc(-c3ccc(=O)n(C(C)C)c3)c2)cc1 (single isomer, unassigned; diastereomer 2) [Example 243, cyclopropyl N-[1-[[3-(1-isopropyl-6-oxo-3-pyridyl)phenyl]-phenyl-methyl]-2-[4-(3-methyl-1H-pyrazol-4-yl)anilino]-2-oxo-ethyl]carbamate (Diastereomer 2)]
< 6.00 | CC(C)n1cc(-c2cccc(C(c3ccccc3)C(NC(=O)c3ccnn3C)C(=O)Nc3ccc(-c4cncn4C)cc3)c2)ccc1=O (single isomer, unassigned; diastereomer 3) [Example 233, N-[1-[[3-(1-isopropyl-6-oxo 3-pyridyl)phenyl]-phenyl-methyl]-2-[4-(3-methylimidazol-4-yl)anilino] 2-oxo-ethyl]-2-methyl-pyrazole-3-carboxamide (Diastereomer 3)]
< 6.00 | Cc1n[nH]cc1-c1ccc(NC(=O)C(NC(=O)c2ccnn2C)C(c2ccccc2)c2cccc(-c3ccc(=O)n(C(C)C)c3)c2)cc1 (single isomer, unassigned; diastereomer 3) [Example 237, N-[1-[[3-(1-isopropyl-6-oxo-3-pyridyl)phenyl]-phenyl-methyl]-2-[4-(3-methyl-1H-pyrazol-4-yl)anilino]-2-oxo-ethyl]-2-methyl-pyrazole-3-carboxamide (Diastereomer 3)]
< 6.00 | CC(C)n1cc(-c2cccc(C(c3ccccc3)C(NC(=O)OC3CC3)C(=O)Nc3ccc(-c4cncn4C)cc3)c2)ccc1=O (single isomer, unassigned; diastereomer 3) [Example 240, cyclopropyl N-[1-[[3-(1-isopropyl-6-oxo-3-pyridyl)phenyl]-phenyl-methyl]-2-[4-(3-methylimidazol-4-yl)anilino]-2-oxo-ethyl]carbamate (Diastereomer 3)]
< 6.00 | Cc1n[nH]cc1-c1ccc(NC(=O)C(NC(=O)OC2CC2)C(c2ccccc2)c2cccc(-c3ccc(=O)n(C(C)C)c3)c2)cc1 (single isomer, unassigned; diastereomer 3) [Example 244, cyclopropyl N-[1-[[3-(1-isopropyl-6-oxo-3-pyridyl)phenyl]-phenyl-methyl]-2-[4-(3-methyl-1H-pyrazol-4-yl)anilino]-2-oxo-ethyl]carbamate (Diastereomer 3)]
6.00 to 7.00 | CC(C)n1cc(-c2cccc(C(c3ccccc3)C(NC(=O)c3ccnn3C)C(=O)Nc3ccc(-c4cncn4C)cc3)c2)ccc1=O (single isomer, unassigned; diastereomer 4) [Example 234, N-[1-[[3-(1-isopropyl-6-oxo-3-pyridyl)phenyl]-phenyl-methyl]-2-[4-(3-methylimidazol-4-yl)anilino]-2-oxo-ethyl]-2-methyl-pyrazole-3-carboxamide (Diastereomer 4)]
6.00 to 7.00 | Cc1n[nH]cc1-c1ccc(NC(=O)C(NC(=O)c2ccnn2C)C(c2ccccc2)c2cccc(-c3ccc(=O)n(C(C)C)c3)c2)cc1 (single isomer, unassigned; diastereomer 4) [Example 238, N-[1-[[3-(1-isopropyl-6-oxo-3-pyridyl)phenyl]-phenyl-methyl]-2-[4-(3-methyl-1H-pyrazol-4-yl)anilino]-2-oxo-ethyl]-2-methyl-pyrazole-3-carboxamide (Diastereomer 4)]
< 6.00 | CC(C)n1cc(-c2cccc(C(c3ccccc3)C(NC(=O)OC3CC3)C(=O)Nc3ccc(-c4cncn4C)cc3)c2)ccc1=O (single isomer, unassigned; diastereomer 4) [Example 241, cyclopropyl N-[1-[[3-(1-isopropyl-6-oxo-3-pyridyl)phenyl]-phenyl-methyl]-2-[4-(3-methylimidazol-4-yl)anilino]-2-oxo-ethyl]carbamate (Diastereomer 4)]
> 7.00 | Cc1n[nH]cc1-c1ccc(NC(=O)C(NC(=O)OC2CC2)C(c2ccccc2)c2cccc(-c3ccc(=O)n(C(C)C)c3)c2)cc1 (single isomer, unassigned; diastereomer 4) [Example 245, cyclopropyl N-[1-[[3-(1-isopropyl-6-oxo-3-pyridyl)phenyl]-phenyl-methyl]-2-[4-(3-methyl-1H-pyrazol-4-yl)anilino]-2-oxo-ethyl]carbamate (Diastereomer 4)]
> 7.00 | Cc1n[nH]c(C)c1-c1ccc(NC(=O)[C@@H](NC(=O)c2ccnn2C)[C@@H]2CCc3ccc(-c4ccc5c(c4)CNC5)cc32)cc1 [Example 1, N-[(1S)-2-[4-(3,5-dimethyl-1H-pyrazol-4-yl)anilino]-1-[(1R)-6-isoindolin-5-ylindan-1-yl]-2-oxo-ethyl]-2-methyl-pyrazole-3-carboxamide]
> 7.00 | Cc1n[nH]c(C)c1-c1ccc(NC(=O)[C@@H](NC(=O)c2ccnn2C)[C@@H]2CCc3ccc(-c4ccc(CN5CCOCC5)cc4)cc32)cc1 [Example 2, N-[(1S)-2-[4-(3,5-dimethyl-1H-pyrazol-4-yl)anilino]-1-[(1R)-6-[4-(morpholinomethyl)phenyl]indan-1-yl]-2-oxo-ethyl]-2-methyl-pyrazole-3-carboxamide]
